What was measured:
ALOMY [1] = assay: Pre-emergence action against ALOMY; format: in vivo, Alopecurus myosuroides; details: for pest or weed control at 320 g/ha: Alopecurus myosuroides, 504 h, dosage 320 g/ha, pre-emergence, scored visually after 3 weeks vs untreated controls, 100% = plants have died, 0% = like control plants, read-out: Pre-emergence action against ALOMY (herbicidal activity in percent); for Herbicidal efficacy against ALOMY: 80 g of a.i./ha
Procedure, shortened: (§1)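 Seeds sown in sandy loam in wood-fiber pots and covered with soil. Greenhouse growth; visual damage scored after 3 weeks versus untreated controls (100% = dead, 0% = like control).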

AVEFA [2] = assay: Pre-emergence action against AVEFA; format: in vivo, Avena fatua; details: Avena fatua, 504 h, dosage 320 g/ha, scored visually after 3 weeks vs untreated controls, read-out: Pre-emergence action against AVEFA (herbicidal activity)
Procedure, shortened: as §1

CYPES = assay: Pre-emergence action against CYPES; format: in vivo, Cyperus esculentus; details: for pest or weed control at 320 g/ha: Cyperus esculentus, 504 h, pre-emergence, dosage 320 g/ha, scored visually after 3 weeks vs untreated controls, read-out: Pre-emergence action against CYPES (herbicidal activity); for Herbicidal efficacy against CYPES: 80 g of a.i./ha
Procedure, shortened: as §1

ECHCG [3] = assay: Pre-emergence action against ECHCG; format: in vivo, Echinochloa crus-galli; details: for pest or weed control at 320 g/ha: Echinochloa crus-galli, 504 h, pre-emergence, dosage 320 g/ha, scored visually after 3 weeks vs untreated controls, read-out: Pre-emergence action against ECHCG (herbicidal activity); for Herbicidal efficacy against ECHCG: Table V3, pre-emergence, 80 g of a.i./ha
Procedure, shortened: as §1

ABUTH = assay: Pre-emergence action against ABUTH; format: in vivo, Abutilon theophrasti; details: for pest or weed control at 320 g/ha: Abutilon theophrasti, 504 h, pre-emergence, dosage 320 g/ha, scored visually after 3 weeks vs untreated controls, read-out: Pre-emergence action against ABUTH (herbicidal activity)
Procedure, shortened: as §1

AMARE = assay: Pre-emergence action against AMARE; format: in vivo, Amaranthus retroflexus; details: for pest or weed control at 320 g/ha: Amaranthus retroflexus, 504 h, pre-emergence, dosage 320 g/ha, scored visually after 3 weeks vs untreated controls, read-out: Pre-emergence action against AMARE (herbicidal activity); for Herbicidal efficacy against AMARE: Table V3, pre-emergence, 80 g of a.i./ha
Procedure, shortened: as §1

STEME [4] = assay: Pre-emergence action against STEME; format: in vivo, Stellaria media; details: for pest or weed control at 320 g/ha: Stellaria media, 504 h, Dosage 320 g/ha, pre-emergence
Procedure, shortened: as §1

VIOTR [5] = assay: Pre-emergence action against VIOTR; format: in vivo, Viola tricolor; details: for pest or weed control at 320 g/ha: Viola tricolor, 504 h, Dosage 320 g/ha, pre-emergence
Procedure, shortened: as §1

VERPE [6] = assay: Pre-emergence action against VERPE; format: in vivo, Veronica persica; details: for pest or weed control at 320 g/ha: Veronica persica, 504 h, Dosage 320 g/ha, pre-emergence
Procedure, shortened: as §1

ALOMY [7] = assay: Post-emergence action against ALOMY; format: in vivo, Alopecurus myosuroides; details: for pest or weed control at 80 g/ha: Alopecurus myosuroides, 504 h, Dosage 80 g/ha, post-emergence
Procedure, shortened: (§2)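 Weeds grown in sandy loam in greenhouse, treated at one-leaf stage (2–3 weeks after sowing) with WP or EC formulations sprayed as aqueous suspension/emulsion at 600 to […] water with 0.2% wetting agent. Visual rating after about 3 weeks versus untreated controls, as % herbicidal action (100% = plants dead, 0% = like control).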

AVEFA [8] = assay: Post-emergence action against AVEFA; format: in vivo, Avena fatua; details: for pest or weed control at 80 g/ha: Avena fatua, 504 h, post-emergence, dosage 80 g/ha, visual assessment about 3 weeks after treatment vs untreated controls, read-out: Post-emergence action against AVEFA (herbicidal action in percent)
Procedure, shortened: as §2

ECHCG [9] = assay: Post-emergence action against ECHCG; format: in vivo, Echinochloa crus-galli; details: for pest or weed control at 80 g/ha: Echinochloa crus-galli, 504 h, post-emergence, dosage 80 g/ha, visual assessment about 3 weeks after treatment vs untreated controls, read-out: Post-emergence action against ECHCG (herbicidal action in percent); for Herbicidal efficacy against ECHCG: Table V16, post-emergence
Procedure, shortened: as §2

SETVI = assay: Post-emergence action against SETVI; format: in vivo, Setaria viridis; details: for pest or weed control at 80 g/ha: Setaria viridis, 504 h, post-emergence, dosage 80 g/ha, visual assessment about 3 weeks after treatment vs untreated controls, read-out: Post-emergence action against SETVI (herbicidal action in percent)
Procedure, shortened: as §2

MATIN = assay: Post-emergence action against MATIN; format: in vivo, Matricaria inodora; details: for pest or weed control at 80 g/ha: Tripleurospermum inodorum, 504 h, post-emergence, dosage 80 g/ha, visual assessment about 3 weeks after treatment vs untreated controls, read-out: Post-emergence action against MATIN (herbicidal action in percent)
Procedure, shortened: as §2

PHBPU = assay: Post-emergence action against PHBPU; format: in vivo, Pharbitis purpurea; details: for pest or weed control at 80 g/ha: Ipomoea purpurea, 504 h, post-emergence, dosage 80 g/ha
Procedure, shortened: as §2

STEME [10] = assay: Post-emergence action against STEME; format: in vivo, Stellaria media; details: for pest or weed control at 80 g/ha: Stellaria media, 504 h, post-emergence, dosage 80 g/ha
Procedure, shortened: as §2

VIOTR [11] = assay: Post-emergence action against VIOTR; format: in vivo, Viola tricolor; details: for pest or weed control at 80 g/ha: Viola tricolor, 504 h, post-emergence, dosage 80 g/ha
Procedure, shortened: as §2

VERPE [12] = assay: Post-emergence action against VERPE; format: in vivo, Veronica persica; details: Veronica persica, 504 h, dosage 80 g/ha
Procedure, shortened: as §2

[13] = Table V2, pre-emergence, 20 g of a.i./ha
[14] = Table V3, pre-emergence, 80 g of a.i./ha
[15] = Table V15, post-emergence, 5 g of a.i./ha
[16] = Table V7, pre-emergence, 20 g of a.i./ha
[17] = Table V18, post-emergence, 20 g of a.i./ha
[18] = Table V17, post-emergence, 5 g of a.i./ha
[19] = Table V4, pre-emergence, 20 g of a.i./ha
[20] = Table V16, post-emergence, 5 g of a.i./ha
[21] = Table V16, post-emergence, 20 g of a.i./ha

Compound | pest or weed control at 320 g/ha (ALOMY [1]) | Herbicidal efficacy against ALOMY (ALOMY [1]; Table V3, pre-emergence) | pest or weed control at 320 g/ha (AVEFA [2]) | pest or weed control at 320 g/ha (CYPES) | Herbicidal efficacy against CYPES (CYPES; Table V3, pre-emergence) | pest or weed control at 320 g/ha (ECHCG [3]) | pest or weed control at 320 g/ha (ABUTH) | pest or weed control at 320 g/ha (AMARE) | pest or weed control at 320 g/ha (STEME [4]) | pest or weed control at 320 g/ha (VIOTR [5]) | pest or weed control at 320 g/ha (VERPE [6]) | pest or weed control at 80 g/ha (ALOMY [7]) | pest or weed control at 80 g/ha (AVEFA [8]) | pest or weed control at 80 g/ha (ECHCG [9]) | pest or weed control at 80 g/ha (SETVI) | pest or weed control at 80 g/ha (MATIN) | pest or weed control at 80 g/ha (PHBPU) | pest or weed control at 80 g/ha (STEME [10]) | pest or weed control at 80 g/ha (VIOTR [11]) | pest or weed control at 80 g/ha (VERPE [12]) | also measured
Cn1nnnc1NC(=O)c1ccc(S(C)(=O)=O)c(C(=O)C2CC2)c1Cl [1-129] | 100% | 100 | 100% | 100% | 100 | 100% | 100% | 100% | 100% | 100% | 100% | 100% | 100% | 90% | 100% | 90% | 100% | 100% | 100% | 100% | ECHCG (ECHCG [3]; [13]): 90; Herbicidal efficacy against ECHCG (ECHCG [3]): 100; Herbicidal efficacy against ABUTH (ABUTH; [14]): 100; AMARE (AMARE; [13]): 90; Herbicidal efficacy against AMARE (AMARE): 100; Herbicidal efficacy against VIOTR (VIOTR [5]; [14]): 100; VERPE (VERPE [6]; [13]): 100; Herbicidal efficacy against ALOMY (ALOMY [7]; [15]): 70; Herbicidal efficacy against AVEFA (AVEFA [8]; [15]): 60; Herbicidal efficacy against SETVI (SETVI; [15]): 100; Herbicidal efficacy against MATIN (MATIN; [15]): 80
CSc1c(C(=O)Nc2nnnn2C)ccc(C(F)(F)F)c1C(C)=O [1-58] | 100% | – | 100% | 100% | – | 100% | 100% | 100% | 100% | 100% | 100% | 90% | 100% | 100% | 100% | 100% | 100% | 100% | 100% | 100% | –
Cc1c(C(=O)Nc2nnnn2C)ccc(S(C)(=O)=O)c1C(=O)C1CC1 [1-9] | 90% | – | 80% | 80% | – | 100% | 100% | 100% | 80% | 100% | – | 100% | 100% | 90% | 100% | 100% | 100% | 100% | 100% | 100% | Herbicidal efficacy against CYPES (CYPES; Table V6, pre-emergence): 70; Herbicidal efficacy against ABUTH (ABUTH; [16]): 100; Herbicidal efficacy against VIOTR (VIOTR [5]; [16]): 70; Herbicidal efficacy against VIOTR (VIOTR [5]; Table V9, pre-emergence, 80 g of a.i./ha): 100; Herbicidal efficacy against ALOMY (ALOMY [7]; [17]): 80; Herbicidal efficacy against AVEFA (AVEFA [8]; [17]): 80; Herbicidal efficacy against SETVI (SETVI; [17]): 100; Herbicidal efficacy against MATIN (MATIN; [18]): 100; Herbicidal efficacy against MATIN (MATIN; [17]): 100; Herbicidal efficacy against PHBPU (PHBPU; [17]): 100; Herbicidal efficacy against STEME (STEME [10]; [17]): 100; Herbicidal efficacy against VIOTR (VIOTR [11]; [18]): 100
CC(=O)c1c(S(C)(=O)=O)ccc(C(=O)Nc2nnnn2C)c1Cl [1-127] | 100% | 80 | 90% | 90% | 90 | 100% | 100% | 100% | 90% | 100% | 100% | – | 80% | 100% | 80% | 100% | 100% | 90% | 100% | 100% | Herbicidal efficacy against ALOMY (ALOMY [1]; Table V1, pre-emergence): 80; Herbicidal efficacy against CYPES (CYPES; Table V1, pre-emergence): 90; Herbicidal efficacy against ECHCG (ECHCG [3]): 100; Herbicidal efficacy against ABUTH (ABUTH; [14]): 100; Herbicidal efficacy against ABUTH (ABUTH; [19]): 90; Herbicidal efficacy against AMARE (AMARE): 100; Herbicidal efficacy against STEME (STEME [4]; [19]): 70; Herbicidal efficacy against VIOTR (VIOTR [5]; Table V1, pre-emergence, 80 g of a.i./ha): 100; Herbicidal efficacy against VIOTR (VIOTR [5]; [14]): 100; Herbicidal efficacy against VERPE (VERPE [6]; [19]): 90; Herbicidal efficacy against ECHCG (ECHCG [9]; 5 g of a.i./ha): 100; Herbicidal efficacy against ECHCG (ECHCG [9]; 20 g of a.i./ha): 100; Herbicidal efficacy against MATIN (MATIN; Table V14, post-emergence, 5 g of a.i./ha): 90; Herbicidal efficacy against MATIN (MATIN; [20]): 90; Herbicidal efficacy against MATIN (MATIN; [21]): 100; Herbicidal efficacy against PHBPU (PHBPU; [20]): 70; Herbicidal efficacy against PHBPU (PHBPU; [21]): 100; Herbicidal efficacy against VIOTR (VIOTR [11]; [20]): 100; Herbicidal efficacy against VIOTR (VIOTR [11]; [21]): 100
